From patent US9561278B2, “Derivatized hyperbranched polyglycerols” (THE UNIVERSITY OF BRITISH COLUMBIA, priority 2010, dated 2017)
≈ marks a conversion by molar mass, not a printed value.

Assays:
[1] = cited from earlier work
[2] = In vitro cisplatin release by dialysis; format: physicochemical; conditions: PBS, 37° C.
Method: Cisplatin was bound to the carboxylate modified HPGs as described above with final polymer and cisplatin concentrations of 10 and 1 mg/mL, respectively. Into 7000 MWCO Slide-A-Lyzer mini dialysis units (Thermo Scientific, Rockford, Ill.), 20 μL of cisplatin bound polymer solution, or a 1 mg/mL solution of free cisplatin, were added and the samples were dialyzed at 37° C. with stirring against 4 L of 1 mM PBS adjusted to pHs of 4.5, 6.0, and 7.4 or synthetic urine at pH 7.0. Synthetic urine (Surine) was purchased from Dyna-Tek Industries (Lenexa, Kans.). At predetermined time points, three dialysis units were removed from the release media, and the entire contents were removed with three washings of the dialysis unit followed by dilution to 1 mL with fresh release media. The cisplatin concentration of contents of the dialysis units was determined by OPDA colorimetric assay. The cumulative percent drug released was calculated by subtracting the amount of drug remaining from the initial amount of drug in the dialysis bag at the beginning of the experiment. The data were expressed as cumulative percentage of drug released as a function of time.

[3] = tested on: KU-7-luc bladder cancer cells; test: Cytotoxicity evaluation, MTS cell proliferation assay; format: cell-based; conditions: cisplatin concentration
Method: Cytotoxicity studies were performed using the MTS cell proliferation assay (Promega, Madison, Wis.). […] In this study, KU-7-luc bladder cancer cells, kindly provided by Dr. M. Tachibana (Keio University, Tokyo, Japan). The cells were plated at 5000 cells/well into 96-well plates in 180 μL of Dulbecco's modified Eagle (DMEM) medium (Invitrogen Canada, Inc., Burlington, ON) supplemented with 10% fetal bovine serum (FBS) (Invitrogen Canada, Inc., Burlington, ON), 1% penicillin-streptomycin, and 1% L-glutamine and allowed to grow for 24 h at 37° C. in 5% CO2 to reach approximately 80% confluence for cytotoxicity assays. Cells were then incubated for 2 or 72 h with HPGs alone, ranging from 0.01-100 mg/mL, or free cisplatin or cisplatin-loaded HPGs with drug concentrations ranging from 0.01-100 μg/mL. After treatment, the cells were washed twice with Hank's balanced salt solution (HBSS) and 180 μL of fresh culture media was added into each well and cells were allowed to grow for 72 h. Proliferation of these cells was measured using a CellTiter 96 aqueous non-radioactive cell proliferation assay (Promega, Madison, Wis.) as described previously (Mugabe, C.; Hadaschik, B. A.; Kainthan, R. K.; Brooks, D. E.; So, A. I.; Gleave, M. E.; Burt, H. M. BJU Int. 2009, 103, 978-986). […] The absorbance was measured at 490 nm with a reference of 620 nm using a microplate reader.

Structure (SMILES)	aqueous solubility [1]	time to 100% complete release [2]	IC50 ([3]; 2 h incubation)	IC50 ([3]; 72 h incubation)
CC(=O)O[C@@]12CO[C@@H]1C[C@H](O)[C@@]1(C)C(=O)[C@H](O)C3=C(C)[C@@H](OC(=O)[C@H](O)[C@@H](NC(=O)OC(C)(C)C)c4ccccc4)C[C@@](O)([C@@H](OC(=O)c4ccccc4)[C@H]21)C3(C)C [DTX, docetaxel]	~7 µg/mL (≈ 8.66 µM)	–	–	–
N.N.[Cl][Pt][Cl] [free cisplatin, cisplatin]	–	≤ 7 h	approximately 10 μg/mL	1 µg/mL
